From ChEMBL document CHEMBL5291721, “A preclinical secondary pharmacology resource illuminates target-adverse drug reaction associations of marketed drugs” (Nat Commun, 2023) come the findings set out here.

In general, AC50 refers to the midpoint of the concentration-response curve, whichever way the signal moves.

Test [1] deals with cGMP-inhibited 3',5'-cyclic phosphodiesterase 3A (Homo sapiens, UniProt Q14432). In kind it is functional.
In test [2] the target is Prothrombin (Homo sapiens, UniProt P00734). In kind it is functional.
Test [3] has as its target 3',5'-cyclic-AMP phosphodiesterase 4A (Homo sapiens, UniProt P27815). In kind it is functional.
Test [4] addresses T1, Muscarinic acetylcholine receptor M2 (Homo sapiens, UniProt P08172).
T1 sequence (P08172 whole entry): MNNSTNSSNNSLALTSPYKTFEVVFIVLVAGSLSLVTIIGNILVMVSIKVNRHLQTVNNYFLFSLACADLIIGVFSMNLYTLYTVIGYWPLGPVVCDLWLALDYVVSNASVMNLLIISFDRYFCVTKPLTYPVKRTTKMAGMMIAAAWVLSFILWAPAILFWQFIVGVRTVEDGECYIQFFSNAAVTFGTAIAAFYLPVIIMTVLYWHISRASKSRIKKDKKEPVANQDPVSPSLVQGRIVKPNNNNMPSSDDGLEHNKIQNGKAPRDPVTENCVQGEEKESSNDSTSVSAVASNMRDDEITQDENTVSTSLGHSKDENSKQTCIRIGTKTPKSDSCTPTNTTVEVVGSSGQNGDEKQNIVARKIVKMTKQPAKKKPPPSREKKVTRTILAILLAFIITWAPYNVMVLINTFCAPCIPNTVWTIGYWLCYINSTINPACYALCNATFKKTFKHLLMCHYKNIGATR

Test [5] deals with T2, Progesterone receptor (Homo sapiens, UniProt P06401).
T2 sequence (P06401 whole entry): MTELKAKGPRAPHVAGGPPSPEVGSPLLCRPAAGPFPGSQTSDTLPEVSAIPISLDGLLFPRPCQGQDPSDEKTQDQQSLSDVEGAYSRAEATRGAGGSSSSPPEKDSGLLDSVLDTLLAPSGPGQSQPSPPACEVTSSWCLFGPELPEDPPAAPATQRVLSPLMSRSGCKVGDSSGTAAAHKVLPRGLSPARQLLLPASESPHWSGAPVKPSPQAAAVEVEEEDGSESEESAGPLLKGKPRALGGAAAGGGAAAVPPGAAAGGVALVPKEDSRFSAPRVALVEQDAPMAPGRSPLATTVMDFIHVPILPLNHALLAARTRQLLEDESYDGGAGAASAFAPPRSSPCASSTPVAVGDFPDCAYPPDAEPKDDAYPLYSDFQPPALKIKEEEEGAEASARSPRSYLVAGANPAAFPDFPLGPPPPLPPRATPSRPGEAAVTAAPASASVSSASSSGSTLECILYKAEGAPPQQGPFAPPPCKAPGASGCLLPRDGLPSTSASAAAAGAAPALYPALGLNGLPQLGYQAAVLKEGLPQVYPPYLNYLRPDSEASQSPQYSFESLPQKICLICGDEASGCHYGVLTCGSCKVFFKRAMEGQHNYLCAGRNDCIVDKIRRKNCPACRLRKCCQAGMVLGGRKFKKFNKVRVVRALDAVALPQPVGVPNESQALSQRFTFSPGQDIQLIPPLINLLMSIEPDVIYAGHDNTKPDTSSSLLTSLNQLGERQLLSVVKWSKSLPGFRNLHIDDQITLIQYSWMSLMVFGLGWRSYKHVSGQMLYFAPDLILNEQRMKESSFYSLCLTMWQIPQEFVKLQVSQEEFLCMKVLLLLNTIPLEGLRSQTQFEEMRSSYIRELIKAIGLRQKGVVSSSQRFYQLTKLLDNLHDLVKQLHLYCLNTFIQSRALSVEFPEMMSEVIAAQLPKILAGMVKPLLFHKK

Test [6] deals with T3, Alpha-2A adrenergic receptor (Homo sapiens, UniProt P08913).
T3 sequence (P08913 whole entry): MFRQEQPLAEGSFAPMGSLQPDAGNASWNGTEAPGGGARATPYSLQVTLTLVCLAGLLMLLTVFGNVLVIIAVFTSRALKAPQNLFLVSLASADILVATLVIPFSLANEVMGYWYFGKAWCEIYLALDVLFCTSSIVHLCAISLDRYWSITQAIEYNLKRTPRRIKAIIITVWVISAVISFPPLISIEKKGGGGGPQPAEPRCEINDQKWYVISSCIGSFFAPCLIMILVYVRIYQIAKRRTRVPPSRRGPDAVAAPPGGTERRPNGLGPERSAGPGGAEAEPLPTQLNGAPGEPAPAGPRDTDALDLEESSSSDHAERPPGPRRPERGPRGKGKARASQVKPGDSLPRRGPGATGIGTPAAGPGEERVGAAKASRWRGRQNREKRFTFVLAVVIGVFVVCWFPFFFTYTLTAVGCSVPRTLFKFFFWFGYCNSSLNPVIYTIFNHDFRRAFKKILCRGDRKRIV

Test [7] concerns the target 5-hydroxytryptamine receptor 2B (Homo sapiens, UniProt P41595). The format is functional, cell-based.
The target of test [8] is D(3) dopamine receptor (Homo sapiens, UniProt P35462).
D(3) dopamine receptor, sequence (P35462 whole entry): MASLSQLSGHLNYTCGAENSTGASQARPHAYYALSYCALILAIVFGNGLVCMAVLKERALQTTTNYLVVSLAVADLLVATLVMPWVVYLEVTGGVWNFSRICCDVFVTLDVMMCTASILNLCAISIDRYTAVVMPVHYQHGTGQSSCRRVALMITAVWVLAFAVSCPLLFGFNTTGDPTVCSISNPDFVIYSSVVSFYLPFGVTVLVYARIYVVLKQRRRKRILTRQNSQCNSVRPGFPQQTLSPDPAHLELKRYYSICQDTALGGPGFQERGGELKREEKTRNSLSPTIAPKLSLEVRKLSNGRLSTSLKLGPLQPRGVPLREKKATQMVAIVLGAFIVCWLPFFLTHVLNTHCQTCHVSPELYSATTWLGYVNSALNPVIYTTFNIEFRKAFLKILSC
Test [9] concerns the target Voltage-gated inwardly rectifying potassium channel KCNH2 (Homo sapiens, UniProt Q12809). In kind it is functional. The settings on record: read-out: AC50.
The target in test [10] is Prostaglandin G/H synthase 1 (Homo sapiens, UniProt P23219). The format is functional.
Prostaglandin G/H synthase 1, sequence (P23219 whole entry): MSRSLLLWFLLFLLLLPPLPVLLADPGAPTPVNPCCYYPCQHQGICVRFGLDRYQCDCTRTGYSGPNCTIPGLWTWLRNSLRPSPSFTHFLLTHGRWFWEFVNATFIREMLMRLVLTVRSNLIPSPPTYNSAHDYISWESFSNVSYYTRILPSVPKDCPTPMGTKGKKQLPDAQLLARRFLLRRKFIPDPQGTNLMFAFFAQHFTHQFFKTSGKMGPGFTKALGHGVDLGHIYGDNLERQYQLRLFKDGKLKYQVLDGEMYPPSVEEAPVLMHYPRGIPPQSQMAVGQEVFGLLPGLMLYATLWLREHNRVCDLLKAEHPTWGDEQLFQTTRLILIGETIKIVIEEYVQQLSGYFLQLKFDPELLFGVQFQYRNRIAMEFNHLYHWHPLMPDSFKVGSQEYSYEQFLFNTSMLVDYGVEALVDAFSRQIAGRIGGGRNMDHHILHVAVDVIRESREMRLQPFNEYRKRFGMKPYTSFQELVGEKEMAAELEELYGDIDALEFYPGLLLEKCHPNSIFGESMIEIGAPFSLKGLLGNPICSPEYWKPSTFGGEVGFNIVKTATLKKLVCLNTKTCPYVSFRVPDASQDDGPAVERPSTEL
Test [11] concerns the target T4, Adenosine receptor A3 (Homo sapiens, UniProt P0DMS8).
T4 sequence (P0DMS8 whole entry): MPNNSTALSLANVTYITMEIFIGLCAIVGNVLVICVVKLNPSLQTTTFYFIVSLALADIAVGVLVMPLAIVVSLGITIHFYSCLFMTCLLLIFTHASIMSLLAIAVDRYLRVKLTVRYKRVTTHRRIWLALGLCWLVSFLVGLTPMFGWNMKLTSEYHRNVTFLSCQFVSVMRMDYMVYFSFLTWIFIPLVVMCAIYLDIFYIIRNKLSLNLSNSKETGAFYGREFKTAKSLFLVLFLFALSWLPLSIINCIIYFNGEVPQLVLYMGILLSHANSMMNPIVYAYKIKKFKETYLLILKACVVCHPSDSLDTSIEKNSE

The structures appear in SMILES notation.
Note: assay procedure not described here.

cGMP-inhibited 3',5'-cyclic phosphodiesterase 3A, sequence (Q14432 whole entry): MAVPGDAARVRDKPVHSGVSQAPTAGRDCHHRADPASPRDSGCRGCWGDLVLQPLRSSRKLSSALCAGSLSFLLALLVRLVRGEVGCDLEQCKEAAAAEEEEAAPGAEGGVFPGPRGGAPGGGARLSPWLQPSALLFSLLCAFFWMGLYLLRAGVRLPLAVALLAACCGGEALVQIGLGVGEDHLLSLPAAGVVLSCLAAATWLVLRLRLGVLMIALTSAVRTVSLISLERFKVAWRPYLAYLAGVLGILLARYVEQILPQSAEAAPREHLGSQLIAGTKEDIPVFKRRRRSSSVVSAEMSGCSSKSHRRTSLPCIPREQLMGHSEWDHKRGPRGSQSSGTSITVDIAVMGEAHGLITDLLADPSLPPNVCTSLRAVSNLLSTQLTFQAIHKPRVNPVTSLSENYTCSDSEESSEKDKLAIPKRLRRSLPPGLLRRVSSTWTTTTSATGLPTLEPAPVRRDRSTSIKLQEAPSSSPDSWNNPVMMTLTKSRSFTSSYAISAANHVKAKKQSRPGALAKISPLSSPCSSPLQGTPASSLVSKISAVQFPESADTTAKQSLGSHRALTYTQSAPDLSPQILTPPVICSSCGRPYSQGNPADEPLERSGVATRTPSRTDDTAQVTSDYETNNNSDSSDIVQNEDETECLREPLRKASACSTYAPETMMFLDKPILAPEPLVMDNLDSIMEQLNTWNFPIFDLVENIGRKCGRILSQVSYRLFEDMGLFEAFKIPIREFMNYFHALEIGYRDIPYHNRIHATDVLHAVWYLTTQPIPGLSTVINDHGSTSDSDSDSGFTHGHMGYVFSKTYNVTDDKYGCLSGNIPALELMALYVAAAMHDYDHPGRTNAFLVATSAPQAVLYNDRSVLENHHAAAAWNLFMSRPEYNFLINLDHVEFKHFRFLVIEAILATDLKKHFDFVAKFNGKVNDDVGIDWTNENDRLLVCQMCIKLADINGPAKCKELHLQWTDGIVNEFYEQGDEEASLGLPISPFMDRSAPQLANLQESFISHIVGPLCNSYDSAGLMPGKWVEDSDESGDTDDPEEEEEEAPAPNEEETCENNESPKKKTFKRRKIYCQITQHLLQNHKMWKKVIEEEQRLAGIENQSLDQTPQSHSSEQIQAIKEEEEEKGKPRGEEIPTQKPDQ
3',5'-cyclic-AMP phosphodiesterase 4A, sequence (P27815 whole entry): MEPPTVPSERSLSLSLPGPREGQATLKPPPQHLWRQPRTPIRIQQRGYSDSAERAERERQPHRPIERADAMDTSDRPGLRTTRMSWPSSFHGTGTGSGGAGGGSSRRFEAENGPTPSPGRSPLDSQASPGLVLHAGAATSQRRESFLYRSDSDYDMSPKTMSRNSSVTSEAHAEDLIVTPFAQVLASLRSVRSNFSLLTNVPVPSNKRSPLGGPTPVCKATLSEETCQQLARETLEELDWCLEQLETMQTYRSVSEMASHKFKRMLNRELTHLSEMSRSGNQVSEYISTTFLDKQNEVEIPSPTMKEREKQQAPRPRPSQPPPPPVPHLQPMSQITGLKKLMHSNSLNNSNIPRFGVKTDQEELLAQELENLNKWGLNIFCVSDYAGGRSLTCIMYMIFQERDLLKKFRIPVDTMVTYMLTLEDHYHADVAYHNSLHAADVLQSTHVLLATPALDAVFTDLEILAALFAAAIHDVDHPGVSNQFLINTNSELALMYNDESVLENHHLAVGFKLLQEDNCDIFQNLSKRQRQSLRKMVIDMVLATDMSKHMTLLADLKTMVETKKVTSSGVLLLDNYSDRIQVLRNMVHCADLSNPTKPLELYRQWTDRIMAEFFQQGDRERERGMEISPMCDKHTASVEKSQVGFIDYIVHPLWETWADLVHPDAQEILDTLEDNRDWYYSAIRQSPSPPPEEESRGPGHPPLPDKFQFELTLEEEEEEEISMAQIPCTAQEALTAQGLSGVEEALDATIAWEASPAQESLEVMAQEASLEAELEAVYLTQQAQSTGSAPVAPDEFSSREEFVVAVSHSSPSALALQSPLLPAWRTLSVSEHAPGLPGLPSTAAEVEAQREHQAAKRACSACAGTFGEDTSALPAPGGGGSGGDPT
Voltage-gated inwardly rectifying potassium channel KCNH2, sequence (Q12809 whole entry): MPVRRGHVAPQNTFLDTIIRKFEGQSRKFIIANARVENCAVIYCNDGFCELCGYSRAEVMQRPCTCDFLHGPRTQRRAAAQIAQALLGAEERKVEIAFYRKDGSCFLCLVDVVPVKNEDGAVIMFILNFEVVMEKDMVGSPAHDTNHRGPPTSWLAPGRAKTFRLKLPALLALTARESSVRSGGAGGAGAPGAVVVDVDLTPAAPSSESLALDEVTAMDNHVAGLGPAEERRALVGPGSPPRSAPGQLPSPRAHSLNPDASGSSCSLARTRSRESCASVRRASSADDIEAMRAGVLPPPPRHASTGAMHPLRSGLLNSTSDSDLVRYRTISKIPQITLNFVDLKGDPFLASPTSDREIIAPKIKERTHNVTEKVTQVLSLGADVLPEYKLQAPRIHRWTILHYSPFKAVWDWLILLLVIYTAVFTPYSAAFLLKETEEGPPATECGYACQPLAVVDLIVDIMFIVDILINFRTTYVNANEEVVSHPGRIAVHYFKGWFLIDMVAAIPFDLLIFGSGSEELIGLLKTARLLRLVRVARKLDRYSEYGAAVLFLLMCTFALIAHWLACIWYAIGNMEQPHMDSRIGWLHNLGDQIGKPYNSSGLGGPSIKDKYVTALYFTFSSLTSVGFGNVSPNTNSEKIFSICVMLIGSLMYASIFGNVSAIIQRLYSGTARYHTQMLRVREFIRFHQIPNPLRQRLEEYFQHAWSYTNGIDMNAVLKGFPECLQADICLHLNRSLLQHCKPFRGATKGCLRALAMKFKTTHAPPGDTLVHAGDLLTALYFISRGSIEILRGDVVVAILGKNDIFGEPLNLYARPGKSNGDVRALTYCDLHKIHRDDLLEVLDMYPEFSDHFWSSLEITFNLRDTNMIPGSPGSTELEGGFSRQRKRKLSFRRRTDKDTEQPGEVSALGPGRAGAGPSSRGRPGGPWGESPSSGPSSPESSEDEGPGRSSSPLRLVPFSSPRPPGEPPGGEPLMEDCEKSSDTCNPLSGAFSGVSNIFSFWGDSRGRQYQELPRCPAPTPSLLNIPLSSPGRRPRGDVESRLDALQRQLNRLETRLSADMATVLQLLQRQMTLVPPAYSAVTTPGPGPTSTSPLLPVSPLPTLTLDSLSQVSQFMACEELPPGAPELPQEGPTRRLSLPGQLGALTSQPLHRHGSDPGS
5-hydroxytryptamine receptor 2B, sequence (P41595 whole entry): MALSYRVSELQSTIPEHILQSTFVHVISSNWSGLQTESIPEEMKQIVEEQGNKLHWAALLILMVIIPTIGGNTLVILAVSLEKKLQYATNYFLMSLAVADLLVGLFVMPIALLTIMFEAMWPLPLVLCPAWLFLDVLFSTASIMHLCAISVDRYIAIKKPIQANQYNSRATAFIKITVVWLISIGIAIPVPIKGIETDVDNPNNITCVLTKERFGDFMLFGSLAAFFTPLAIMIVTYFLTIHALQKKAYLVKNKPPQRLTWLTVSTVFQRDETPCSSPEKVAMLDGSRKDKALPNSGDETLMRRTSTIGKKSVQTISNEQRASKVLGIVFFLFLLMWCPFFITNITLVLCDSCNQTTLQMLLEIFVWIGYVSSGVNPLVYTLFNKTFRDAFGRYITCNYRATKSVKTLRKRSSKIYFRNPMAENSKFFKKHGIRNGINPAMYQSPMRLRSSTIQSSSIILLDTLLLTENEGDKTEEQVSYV

For the compound `Cc1ccc(Cl)c(Nc2ccccc2C(=O)O)c1Cl` [MECLOFENAMIC ACID], the concentration at half-maximal activity (AC50) in test [1] was more than 30 µM; in test [2] it was more than 30 µM; in [3], 25.5 µM; in test [4], more than 30 µM; in [5], more than 30 µM; in [6] it was more than 30 µM. Further, the half-maximal activity concentration (AC50) in test [7] was more than 30 µM; in test [8], more than 30 µM; in test [9], more than 30 µM; in [10] it was 0.0171 µM; in test [11], 29.6 µM.
`Oc1cc(Cl)ccc1Oc1ccc(Cl)cc1Cl` [TRICLOSAN]: the half-maximal activity concentration (AC50) in test [9] is more than 30 µM.
As to `C[C@@H]1O[C@@H](O[C@H]2C[C@@H](O)[C@]3(CO)[C@H]4[C@H](O)C[C@]5(C)[C@@H](C6=CC(=O)OC6)CC[C@]5(O)[C@@H]4CC[C@]3(O)C2)[C@H](O)[C@H](O)[C@H]1O` [OUABAIN], the concentration at half-maximal activity (AC50) in [1], in test [2], in test [3], in test [4], in test [5] and in test [6] was more than 30 µM in each case. The concentration at half-maximal activity (AC50) in test [7], in [8], in [9], in test [10] and in test [11] was more than 30 µM each time.
For `CC1=C(/C=C/C(C)=C\C=C\C(C)=C\C(=O)O)C(C)(C)CCC1` [ALITRETINOIN], the AC50 in [1], in test [2], in test [3], in test [4], in test [5] and in test [6] was more than 30 µM each time. The AC50 in [7], in test [8] and in test [11] was more than 30 µM in each case.
With `Oc1ccc(OCc2ccccc2)cc1` [MONOBENZONE], the AC50 in [1], in test [2], in test [3], in test [4], in [5] and in test [6] was more than 30 µM throughout. Also, the half-maximal activity concentration (AC50) in test [7] was more than 30 µM; in test [8] it was more than 30 µM; in test [9] it was more than 30 µM; in test [10], 7.88 µM; in test [11] it was more than 30 µM.
With `CC(C)(Oc1ccc(Cl)cc1)C(=O)OCCOC(=O)c1cccnc1` [ETOFIBRATE], the AC50 in test [9] is more than 30 µM.
Consider `NS(=O)(=O)c1cc2c(cc1Cl)NC(C(Cl)Cl)NS2(=O)=O` (centres undefined) [TRICHLORMETHIAZIDE], for which the AC50 in test [1], in test [2], in test [3], in test [4], in test [5] and in test [6] was more than 30 µM in each case. Also, the AC50 in test [7], in test [8], in test [10] and in test [11] was more than 30 µM each time.
Consider `CN(C)CCC(O)(c1ccccc1)c1ccccc1Cl` (centres undefined) [CHLOPHEDIANOL], for which the AC50 in test [9] worked out at 3.4 µM.
The same measure, in the same setting: to `COc1ccc(-c2cc(=S)ss2)cc1` [ANETHOLTRITHION] belongs 23.3 µM.
As for `O=NN(CCCl)C(=O)NCCCl` [CARMUSTINE], the half-maximal activity concentration (AC50) in test [4], in [6], in test [7] and in test [8] was more than 30 µM each time.
Take `CN(C)[C@@H]1C(O)=C(C(=O)NCN2CCCC2)C(=O)[C@@]2(O)C(O)=C3C(=O)c4c(O)cccc4[C@@](C)(O)[C@H]3C[C@@H]12` [ROLITETRACYCLINE]: the AC50 in test [9] was more than 30 µM.
For `C[C@]12C=CC(=O)C=C1C(Cl)=C[C@@H]1[C@@H]2[C@@H](O)C[C@@]2(C)[C@H]1CC[C@]2(O)C(=O)CO` [CLOPREDNOL], in [9], the AC50 is more than 30 µM.
Turning to `COc1cccc2c1C(=O)c1c(O)c3c(c(O)c1C2=O)C[C@@](O)(C(=O)CO)C[C@@H]3O[C@H]1C[C@H](N)[C@@H](O)[C@H](C)O1` [EPIRUBICIN], the half-maximal activity concentration (AC50) in test [1] was more than 30 µM; in [2] it was more than 30 µM; in [3], 19.3 µM; in test [4], 25.2 µM; in [5], more than 30 µM; in [6], more than 30 µM. The half-maximal activity concentration (AC50) in [7] is more than 30 µM; in test [8] it was more than 30 µM; in [10] it was 2.44 µM; in [11], more than 30 µM.
As for `CC1(C)O[C@@H]2C[C@H]3[C@@H]4CCC5=CC(=O)C=C[C@]5(C)[C@@]4(F)[C@@H](O)C[C@]3(C)[C@]2(C(=O)CO)O1` [TRIAMCINOLONE ACETONIDE], the concentration at half-maximal activity (AC50) in test [9] was more than 30 µM.
In the case of `C[C@]12CCC(=O)C=C1C=C[C@@H]1[C@@H]2CC[C@@]2(C)[C@H]1CC[C@@]21CCC(=O)O1` [CANRENONE], the AC50 in [9] is more than 30 µM.
Same read-out and setting: the figure for `C[C@]12CCC(=O)C=C1[C@@H]1C[C@@H]1[C@H]1[C@@H]3[C@@H]4C[C@@H]4[C@@]4(CCC(=O)O4)[C@@]3(C)CC[C@@H]12` [DROSPIRENONE] is more than 30 µM.
As for `N=C(N)NC(=O)c1nc(Cl)c(N)nc1N` [AMILORIDE], the half-maximal activity concentration (AC50) in [1], in test [2], in test [3], in test [4], in [5] and in test [6] was more than 30 µM throughout. Besides, the AC50 in test [7], in test [8] and in test [10] was more than 30 µM in each case.
For the compound `CCC(=O)c1ccc2c(c1)N(CC(C)N(C)C)c1ccccc1S2` (centres undefined) [PROPIOMAZINE], in test [9], the concentration at half-maximal activity (AC50) turned out to be 0.685 µM.
As to `CC1=C(/C=C/C(C)=C/C=C/C(C)=C\C(=O)O)C(C)(C)CCC1` [ISOTRETINOIN], the AC50 in test [1], in [2], in test [3], in test [4], in test [5] and in [6] was more than 30 µM each time. Besides, the half-maximal activity concentration (AC50) in [7], in test [8] and in test [11] was more than 30 µM throughout.
As for `CC(CN(C)C)CN1c2ccccc2CCc2ccccc21` (centres undefined) [TRIMIPRAMINE], the concentration at half-maximal activity (AC50) is more than 30 µM in [1]; more than 30 µM in test [2]; more than 30 µM in [3]; more than 30 µM in test [5]; 1.27 µM in test [6]; more than 30 µM in test [7]. Further, the AC50 in [8] was 0.0178 µM; in test [9], 8.9 µM; in test [10], more than 30 µM; in test [11], more than 30 µM.
